Reference: patent US9474790B2, “Stable, protracted GLP-1/glucagon receptor co-agonists for medical use” (Novo Nordisk A/S, priority 2013, dated 2016)
pEC50: −log10 of the molar value. Numbered stars: 1 amine (or outer) side, 2 acyl side, 3 side chain; on linkers, the order of the positions; unused ones are H or OH. Square brackets hold non-standard residues; d marks the D form. Side chains are listed from the residue outwards. Peptide text beside a SMILES is read from it. * marks the point of attachment. C18 diacid = O=C(O)CCCCCCCCCCCCCCCCC(=O)*; γGlu = O=C(O)[C@H](CCC(=O)[*:2])N[*:1]; Ac4c = NC1(C(=O)O)CCC1; AEEA = NCCOCCOCC(=O)O; Aib = CC(C)(N)C(=O)O

molecular target: T1, human glucagon receptor (Homo sapiens, UniProt P47871); assay: Glucagon receptor potency, CRE luciferase reporter gene assay in BHK cells; format: cell-based; conditions: BHK cells expressing human glucagon receptor, read-out: EC50 GlucR
T1 construct: expressed in transfected cells; host or cells: BHK cells (parent BHK570, CRE luciferase clone BHK/KZ10-20-48), clone pLJ6'-4-25
T1 sequence (P47871 26-477): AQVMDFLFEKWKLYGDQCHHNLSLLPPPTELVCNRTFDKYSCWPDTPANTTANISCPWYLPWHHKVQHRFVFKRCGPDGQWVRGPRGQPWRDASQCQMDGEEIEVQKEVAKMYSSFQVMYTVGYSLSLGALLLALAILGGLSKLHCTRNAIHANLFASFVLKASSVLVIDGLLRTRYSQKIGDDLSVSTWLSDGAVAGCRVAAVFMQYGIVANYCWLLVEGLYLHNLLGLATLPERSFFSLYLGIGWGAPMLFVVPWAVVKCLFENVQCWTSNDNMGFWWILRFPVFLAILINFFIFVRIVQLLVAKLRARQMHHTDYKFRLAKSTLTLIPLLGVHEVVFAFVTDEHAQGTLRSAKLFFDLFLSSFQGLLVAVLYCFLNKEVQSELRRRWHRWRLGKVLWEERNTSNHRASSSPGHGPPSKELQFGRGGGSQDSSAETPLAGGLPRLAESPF
How it was run: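 EC50 (pM) comes from a four-parameter fit of luciferase luminescence after 3 h at 37 °C with compound at final 1×10EE-13–1×10EE-6 M. Cells: BHK570-derived line carrying human glucagon receptor plus CRE-luciferase, 5×10EE3/well, in assay medium with 2% ovalbumin, 0.2% Pluronic F-68.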

Structure (SMILES)	pEC50
CC(C)C[C@H](NC(=O)[C@H](Cc1ccc(O)cc1)NC(=O)[C@H](CCCCN)NC(=O)[C@H](CO)NC(=O)[C@H](CC(C)C)NC(=O)[C@H](CC(=O)O)NC(=O)[C@H](CO)NC(=O)[C@@H](NC(=O)[C@H](Cc1ccccc1)NC(=O)[C@@H](NC(=O)CNC(=O)[C@H](CCC(N)=O)NC(=O)C(C)(C)NC(=O)[C@@H](N)Cc1c[nH]cn1)[C@@H](C)O)[C@@H](C)O)C(=O)N[C@@H](CCC(=O)O)C(=O)N[C@@H](CO)C(=O)N[C@@H](CCCCN)C(=O)N[C@@H](CCCNC(=N)N)C(=O)N[C@@H](C)C(=O)N[C@@H](CCCNC(=N)N)C(=O)N[C@@H](CCC(=O)O)C(=O)N[C@@H](Cc1ccccc1)C(=O)N[C@H](C(=O)N[C@@H](CCC(N)=O)C(=O)N[C@@H](Cc1c[nH]c2ccccc12)C(=O)N[C@@H](CC(C)C)C(=O)N[C@@H](CC(C)C)C(=O)N[C@@H](CCCCNC(=O)CC[C@H](NC(=O)CC[C@H](NC(=O)[C@H](CO)NC(=O)[C@H](CCC(=O)O)NC(=O)[C@H](CO)NC(=O)CC[C@H](NC(=O)CC[C@H](NC(=O)CCCCCCCCCCCCCCCCC(=O)O)C(=O)O)C(=O)O)C(=O)O)C(=O)O)C(=O)N[C@H](C(N)=O)[C@@H](C)O)C(C)C [Example 54, N^ε28-[(4S)-4-carboxy-4-[[(4S)-4-carboxy-4-[[(2S)-2-[[(2S)-4-carboxy-2-[[(2S)-2-[[(4S)-4-carboxy-4-[[(4S)-4-carboxy-4-(17-carboxyheptadecanoylamino)butanoyl]amino]butanoyl]amino]-3-hydroxypropanoyl]amino]butanoyl]amino]-3-hydroxypropanoyl]amino]butanoyl]amino]butanoyl]-[Aib2,Leu10,Glu15,Lys17,Arg20,Glu21,Leu27,Lys28]-Glucagon amide] (H-H[Aib]QGTFTSDLSKYLESKRAREFVQWLLK([γGlu-γGlu-Ser-Glu-Ser-γGlu-γGlu-C18 diacid])T-NH2; N-terminus assumed)	10.90
CC(C)C[C@H](NC(=O)[C@H](CC(=O)O)NC(=O)[C@H](CC(C)C)NC(=O)[C@H](Cc1ccc(O)cc1)NC(=O)[C@H](CCCCN)NC(=O)[C@H](CO)NC(=O)[C@H](CC(C)C)NC(=O)[C@H](CC(=O)O)NC(=O)[C@H](CO)NC(=O)[C@@H](NC(=O)[C@H](Cc1ccccc1)NC(=O)[C@@H](NC(=O)CNC(=O)[C@H](CCC(N)=O)NC(=O)C1(NC(=O)[C@@H](N)Cc2c[nH]cn2)CCC1)[C@@H](C)O)[C@@H](C)O)C(=O)N[C@@H](CCCCN)C(=O)N[C@@H](CCCNC(=N)N)C(=O)N[C@@H](C)C(=O)N[C@@H](CCCNC(=N)N)C(=O)N[C@@H](CCC(=O)O)C(=O)N[C@@H](Cc1ccccc1)C(=O)N[C@H](C(=O)N[C@@H](CCC(N)=O)C(=O)N[C@@H](Cc1c[nH]c2ccccc12)C(=O)N[C@@H](CC(C)C)C(=O)N[C@@H](CC(C)C)C(=O)N[C@@H](CCCCNC(=O)CC[C@H](NC(=O)CC[C@H](NC(=O)COCCOCCNC(=O)COCCOCCNC(=O)CC[C@H](NC(=O)CC[C@H](NC(=O)CCCCCCCCCCCCCCCCC(=O)O)C(=O)O)C(=O)O)C(=O)O)C(=O)O)C(=O)N[C@H](C(N)=O)[C@@H](C)O)C(C)C [Example 47, N^ε28-[(4S)-4-carboxy-4-[[(4S)-4-carboxy-4-[[2-[2-[2-[[2-[2-[2-[[(4S)-4-carboxy-4-[[(4S)-4-carboxy-4-(17-carboxyheptadecanoylamino)butanoyl]amino]butanoyl]amino]ethoxy]ethoxy]acetyl]amino]ethoxy]ethoxy]acetyl]amino]butanoyl]amino]butanoyl]-[Acb2,Leu10,Leu16,Lys17,Arg20,Glu21,Leu27,Lys28]-Glucagon amide] (H-H[Ac4c]QGTFTSDLSKYLDLKRAREFVQWLLK([γGlu-γGlu-AEEA-AEEA-γGlu-γGlu-C18 diacid])T-NH2; N-terminus assumed)	11.30
CC(C)C[C@H](NC(=O)[C@H](Cc1ccc(O)cc1)NC(=O)[C@H](CCCCN)NC(=O)[C@H](CO)NC(=O)[C@H](CC(C)C)NC(=O)[C@H](CC(=O)O)NC(=O)[C@H](CO)NC(=O)[C@@H](NC(=O)[C@H](Cc1ccccc1)NC(=O)[C@@H](NC(=O)CNC(=O)[C@H](CCC(N)=O)NC(=O)C(C)(C)NC(=O)[C@@H](N)Cc1c[nH]cn1)[C@@H](C)O)[C@@H](C)O)C(=O)N[C@@H](CCC(=O)O)C(=O)N[C@@H](CO)C(=O)N[C@@H](CCCNC(=N)N)C(=O)N[C@@H](CCCNC(=N)N)C(=O)N[C@@H](C)C(=O)N[C@@H](CCCNC(=N)N)C(=O)N[C@@H](CCC(=O)O)C(=O)N[C@@H](Cc1ccccc1)C(=O)N[C@H](C(=O)N[C@@H](CCC(N)=O)C(=O)N[C@@H](Cc1c[nH]c2ccccc12)C(=O)N[C@@H](CC(C)C)C(=O)N[C@@H](CC(C)C)C(=O)N[C@@H](CCCCNC(=O)COCCOCCNC(=O)COCCOCCNC(=O)CC[C@H](NC(=O)CC[C@H](NC(=O)CC[C@H](NC(=O)CCCCCCCCCCCCCCCCC(=O)O)C(=O)O)C(=O)O)C(=O)O)C(=O)N[C@H](C(N)=O)[C@@H](C)O)C(C)C [Example 42, N^ε28-[2-[2-[2-[[2-[2-[2-[[(4S)-4-carboxy-4-[[(4S)-4-carboxy-4-[[(4S)-4-carboxy-4-(17-carboxyheptadecanoylamino)butanoyl]amino]butanoyl]amino]butanoyl]amino]ethoxy]ethoxy]acetyl]amino]ethoxy]ethoxy]acetyl]-[Aib2,Leu10,Glu15,Arg20,Glu21,Leu27,Lys28]-Glucagon amide] (H-H[Aib]QGTFTSDLSKYLESRRAREFVQWLLK([AEEA-AEEA-γGlu-γGlu-γGlu-C18 diacid])T-NH2; N-terminus assumed)	10.49
CC(C)C[C@H](NC(=O)[C@H](Cc1ccc(O)cc1)NC(=O)[C@H](CCCCN)NC(=O)[C@H](CO)NC(=O)[C@H](CC(C)C)NC(=O)[C@H](CC(=O)O)NC(=O)[C@H](CO)NC(=O)[C@@H](NC(=O)[C@H](Cc1ccccc1)NC(=O)[C@@H](NC(=O)CNC(=O)[C@H](CCC(N)=O)NC(=O)C1(NC(=O)[C@@H](N)Cc2c[nH]cn2)CCC1)[C@@H](C)O)[C@@H](C)O)C(=O)N[C@@H](CCC(=O)O)C(=O)N[C@@H](CO)C(=O)N[C@@H](CCCNC(=N)N)C(=O)N[C@@H](CCCNC(=N)N)C(=O)N[C@@H](C)C(=O)N[C@@H](CCC(N)=O)C(=O)N[C@@H](CC(=O)O)C(=O)N[C@@H](Cc1ccccc1)C(=O)N[C@H](C(=O)N[C@@H](CCC(N)=O)C(=O)N[C@@H](Cc1c[nH]c2ccccc12)C(=O)N[C@@H](CC(C)C)C(=O)N[C@@H](CC(C)C)C(=O)N[C@@H](CCCCNC(=O)COCCOCCNC(=O)COCCOCCNC(=O)CC[C@H](NC(=O)CC[C@H](NC(=O)CC[C@H](NC(=O)CCCCCCCCCCCCCCCCC(=O)O)C(=O)O)C(=O)O)C(=O)O)C(=O)N[C@H](C(N)=O)[C@@H](C)O)C(C)C [Example 63, N^ε28-[2-[2-[2-[[2-[2-[2-[[(4S)-4-carboxy-4-[[(4S)-4-carboxy-4-[[(4S)-4-carboxy-4-(17-carboxyheptadecanoylamino)butanoyl]amino]butanoyl]amino]butanoyl]amino]ethoxy]ethoxy]acetyl]amino]ethoxy]ethoxy]acetyl]-[Acb2,Leu10,Glu15,Leu27,Lys28]-Glucagon amide] (H-H[Ac4c]QGTFTSDLSKYLESRRAQDFVQWLLK([AEEA-AEEA-γGlu-γGlu-γGlu-C18 diacid])T-NH2; N-terminus assumed)	10.62
